Experiments:
Type in all cases: ADME, organism-based
[1] = AUClast in Sprague-Dawley rat plasma at 10 mg/kg, po by UPLC-MS/MS analysis; set-up: route oral, time 0 - last, dose 10 mg/kg
[2] = Tmax in Sprague-Dawley rat plasma at 10 mg/kg, po by UPLC-MS/MS analysis
[3] = AUC (0 to infinity) in Sprague-Dawley rat plasma at 5 mg/kg, iv by UPLC-MS/MS analysis; set-up: route intravenous, time infinity, dose 5 mg/kg
[4] = MRT (0 to infinity) in Sprague-Dawley rat plasma at 5 mg/kg, iv by UPLC-MS/MS analysis
[5] = Half life in Sprague-Dawley rat plasma at 10 mg/kg, po by UPLC-MS/MS analysis
[6] = Clearance in Sprague-Dawley rat plasma at 5 mg/kg, iv by UPLC-MS/MS analysis
[7] = Volume of distribution at steady state in Sprague-Dawley rat plasma at 5 mg/kg, iv by UPLC-MS/MS analysis; details: read-out: Vdss
[8] = Cmax in Sprague-Dawley rat plasma at 10 mg/kg, po by UPLC-MS/MS analysis; set-up: route oral, dose 10 mg/kg
[9] = AUC (0 to infinity) in Sprague-Dawley rat plasma at 10 mg/kg, po by UPLC-MS/MS analysis; set-up: time infinity, route oral, dose 10 mg/kg
[10] = AUClast in Sprague-Dawley rat plasma at 5 mg/kg, iv by UPLC-MS/MS analysis; set-up: route intravenous, time 0 - last, dose 5 mg/kg
[11] = Half life in Sprague-Dawley rat plasma at 5 mg/kg, iv by UPLC-MS/MS analysis
[12] = Oral bioavailability in Sprague-Dawley rat plasma at 10 mg/kg by UPLC-MS/MS analysis

C[C@H]1[C@@H](O[C@@H]2CC[C@@]3(C)[C@@H](C2)C[C@H](O)[C@@H]2[C@@H]3CC[C@]3(C)[C@@H]([C@H](C)CCC(=O)O)CC[C@@H]23)O[C@@H]2O[C@]3(C)CC[C@H]4[C@H](C)CC[C@@H]1[C@@]24OO3
AUC(0-t) [1]: 4190 ng·h/mL | Tmax [2]: 100 min | AUC(0-inf) [3]: 10200 ng·h/mL | MRT inf [4]: 42.2 min | half-life [5]: 49.4 min | clearance [6]: 8.2 mL/min/kg | Vd [7]: 0.346 L/kg | Cmax [8]: 1110 ng/mL | AUC(0-inf) [9]: 4430 ng·h/mL | AUC(0-t) [10]: 10200 ng·h/mL | half-life [11]: 46.4 min | bioavailability [12]: 20.6%
